Structures can show the parent of a compound that is named as a salt. Where two headings read alike, the source gives them in different places.
Experiments:
Nrf2-ARE activity = format: cell-based
[1] = test system: Nrf2-ARE-dependent gene expression (HO1, GCLM, SRX); conditions: THP-1 cells, concentration-dependent
[2] = test system: Nrf2-ARE activity in HepG2 cells; format: cell-based, human; conditions: for ARE-luciferase activity with Nrf2 activator: HepG2 cells treated with both drug and iAs3+ (FIG. 2A, FIG. 3); for inhibitory effect on ARE-luciferase activity: HepG2 cells, basal conditions (FIG. 2A, FIG. 3)
[3] = test system: Nrf2-ARE activity in 3T3-L1 preadipocytes; format: cell-based, mouse
[4] = test system: Nrf2-ARE activity in HaCaT cells; format: cell-based, human
[5] = test system: Nrf2-ARE-dependent gene expression (Gclc, Nqo1, Ho1); experiment: RT-qPCR of ARE-dependent genes in 3T3-L1 preadipocytes; conditions: 10 mM
[6] = test system: Nrf2-ARE-dependent gene expression (Ho1); experiment: RT-qPCR of ARE-dependent gene in HepG2 cells; conditions: concentration-dependent, basal (FIG. 2B)
[7] = iAs3+-treated or tBHQ-treated conditions

Q: Which “inhibitory effect on ARE-luciferase activity” value (Nrf2-ARE activity; basal conditions) does the source give for `NNC(=O)c1ccco1` [2-Furoic hydrazide] here?
A: The value was “concentration-dependent inhibitory effect”.

Q: And the “inhibitory effect on ARE-luciferase activity” value (Nrf2-ARE activity; [7])?
A: The value was “concentration-dependent inhibitory effect”.

Q: For `Nc1cnccn1` [Aminopyrazine], which “inhibitory effect on ARE-luciferase activity” value (Nrf2-ARE activity; basal conditions) is on record?
A: The value was “concentration-dependent inhibitory effect”.

Q: What about the “inhibitory effect on ARE-luciferase activity” value (Nrf2-ARE activity; [7]) of the same compound?
A: Its value is “concentration-dependent inhibitory effect”.

Q: For `CC[C@@H](CO)NCCN[C@@H](CC)CO` [Ethambutol dihydrochloride], which “inhibitory effect on ARE-luciferase activity” value (Nrf2-ARE activity; basal conditions) is on record?
A: Its value is “concentration-dependent inhibitory effect”.

Q: For `CCc1cc(C(N)=S)ccn1` [Ethionamide], which “gene expression (mRNA) of Heme oxygenase (HO1)” value ([1]; basal (FIG. 4A)) is on record?
A: Its value is “suppresses”.

Q: And the “gene expression (mRNA) of GCLM” value ([1]; basal (FIG. 4B))?
A: The value was “suppresses”.

Q: And the “gene expression (mRNA) of sulfiredoxin (SRX)” value ([1]; basal (FIG. 4C))?
A: Its value is “suppresses”.

Q: And the “ARE-luciferase activity with Nrf2 activator” value [2]?
A: Its value is “substantial ARE-luciferase activity”.

Q: What about the “inhibitory effect on ARE-luciferase activity” value [2] of the same compound?
A: Its value is “concentration-dependent inhibitory effect”.

Q: Which results are given for `NNC(=O)c1ccncc1` [Isoniazid]?
A: ARE-luciferase activity with Nrf2 activator ([3]; 3T3-L1 cells treated with both drug and iAs3+ (FIG. 1A)): substantial ARE-luciferase activity; inhibitory effect on ARE-luciferase activity ([3]; 3T3-L1 cells, basal conditions, 1 mM to 50 mM (FIG. 1A)): concentration-dependent inhibitory effect; Nrf2-ARE-inhibitory effect (ARE-luciferase) [4]: Nrf2-ARE-inhibitory effect of isoniazid was also observed; gene expression of glutamate-cysteine ligase catalytic subunit (Gclc) ([5]; basal (FIG. 1B)): suppresses; gene expression of NAD(P)H dehydrogenase [quinone] 1 (Ngo1) ([5]; basal (FIG. 1C)): suppresses; gene expression of Heme oxygenase (Ho1) ([5]; basal (FIG. 1D)): suppresses; ARE-luciferase activity with Nrf2 activator [2]: substantial ARE-luciferase activity; inhibitory effect on ARE-luciferase activity [2]: concentration-dependent inhibitory effect; gene expression of Heme oxygenase (Ho1) [6]: suppresses

Q: `NNC(=O)Cc1ccccc1` [Phenylacetic hydrazide] was tested. Which “inhibitory effect on ARE-luciferase activity” value (Nrf2-ARE activity; basal conditions) did it give?
A: The value was “concentration-dependent inhibitory effect”.

Q: What about the “inhibitory effect on ARE-luciferase activity” value (Nrf2-ARE activity; [7]) of the same compound?
A: Its value is “concentration-dependent inhibitory effect”.

Q: `NNc1ccccc1` [Phenylhydrazine] was tested. Which “inhibitory effect on ARE-luciferase activity” value (Nrf2-ARE activity; basal conditions) did it give?
A: The value was “concentration-dependent inhibitory effect”.

Q: What about the “inhibitory effect on ARE-luciferase activity” value (Nrf2-ARE activity; [7]) of the same compound?
A: The value was “concentration-dependent inhibitory effect”.

Q: For `NC(=O)c1cnccn1` [Pyrazinecarboxamide], which “inhibitory effect on ARE-luciferase activity” value (Nrf2-ARE activity; basal conditions) is on record?
A: Its value is “concentration-dependent inhibitory effect”.

Q: And the “inhibitory effect on ARE-luciferase activity” value (Nrf2-ARE activity; [7])?
A: Its value is “concentration-dependent inhibitory effect”.

Q: How did the “inhibitory effect on ARE-luciferase activity” value (Nrf2-ARE activity; basal conditions) turn out when `C[C@@H]1CN(c2c(F)c(N)c3c(=O)c(C(=O)O)cn(C4CC4)c3c2F)C[C@H](C)N1` [Sparfloxacin] was run?
A: The value was “concentration-dependent inhibitory effect”.

Q: What does the source list for `Cc1ccc(C(=O)NN)cc1` [p-Toluic hydrazide]?
A: inhibitory effect on ARE-luciferase activity (Nrf2-ARE activity; basal conditions): concentration-dependent inhibitory effect; inhibitory effect on ARE-luciferase activity (Nrf2-ARE activity; [7]): concentration-dependent inhibitory effect
